Data on 13 molecules can be found in publication PMC12567244, “Innovative Amino-Functionalization of Pyrido[2,3-d]pyrimidine Scaffolds for Broad Therapeutic Applications Supported by Computational Analyses” (Pharmaceuticals, 2025).

What is called IC50 is the point on the concentration scale where inhibition reaches its midpoint.

The subject of data set [1] is E.coli ATCC25915. Nature of the data set: Well diffusion inhibition zone, E. coli. As to conditions: Escherichia coli, ATCC25915, read-out: Inhibition zone E.coli ATCC25915.
The test system of data set [2] is E. faecalis ATCC29212. In words: Well diffusion inhibition zone, E. faecalis. The following applies: Enterococcus faecalis, ATCC29212, read-out: Inhibition zone E. faecalis ATCC29212. (In general: Agar diffusion results depend on both activity and mobility in agar.)
Data set [3] concerns P. aeruginosa ATCC10145. In words: Well diffusion inhibition zone, P. aeruginosa. The following applies: Pseudomonas aeruginosa, ATCC10145, read-out: Inhibition zone P. aeruginosa ATCC10145.
Data set [4] relates to S. aureus ATCC25923. Nature of the data set: Well diffusion inhibition zone, S. aureus. The following applies: Staphylococcus aureus, ATCC25923, read-out: Inhibition zone S. aureus ATCC25923.
Data set [5] is described as follows: in vitro. As to conditions: human, WI-38 normal lung fibroblast cells.
In data set [6] the test system is breast carcinoma (MCF-7). In words: MTT cytotoxicity assay, MCF-7. As to conditions: for SI MCF-7: IC50 WI-38 / IC50 MCF-7; for IC50: read-out: IC50 MCF-7, MTT, mean ± SD of three measurements.
Data set [7] relates to HeLa, HepG-2, and MCF-7. Nature of the data set: MTT cytotoxicity, range over the cancer cell panel. As to conditions: read-out: IC50 across HeLa, HepG-2 and MCF-7; range over all examined cancer cell lines.
Data set [8] has as its system liver carcinoma (HepG-2). Nature of the data set: MTT cytotoxicity assay, HepG-2. As to conditions: for SI HepG-2: IC50 WI-38 / IC50 HepG-2; for IC50: read-out: IC50 HepG-2, MTT, mean ± SD of three measurements.
The subject of data set [9] is cervical carcinoma (HeLa). Nature of the data set: MTT cytotoxicity assay, HeLa. As to conditions: for SI HeLa: IC50 WI-38 / IC50 HeLa; for IC50: read-out: IC50 HeLa, MTT, mean ± SD of three measurements.

The structures appear in SMILES notation. Values joined by “and” are separate entries in the source; they are usually repeats but may differ in a detail not shown here. Identical values can stand only once. Where only a bound is given, the exact number is not on record here.

In the case of `O=C(O)c1cn(C2CC2)c2cc(N3CCNCC3)c(F)cc2c1=O` [Ciprofloxacin, reference compound], the zone of inhibition at 50 µg/mL in data set [1] was determined as 10 mm; in data set [2] it was 7.5 mm; in data set [3] it was 12.3 ± 0.4 mm; in [4], 8 ± 0.15 mm.
In data set [5], `Cn1c(=O)c2c(-c3ccc(Cl)cc3)c(C(=O)Nc3n[nH]cc3NN)c(N)nc2n(C)c1=O` [Compound 3, 7-Amino-5-(4-chlorophenyl)-N-(4-hydrazinyl-1H-pyrazol-3-yl)-1,3-dimethyl-2,4-dioxo-1,2,3,4-tetrahydropyrido[2,3-d]pyrimidine-6-carboxamide] registered an IC50 at 48 h of 52.8 ± 2.9 µM. In addition, in data set [6], the “SI MCF-7” value turned out to be 2.70 and the IC50 was 19.5 ± 1.3 µM. In addition, the IC50 in data set [7] was in the range of 14 to 26 µM. In data set [8], the “SI HepG-2” value is given as 2.46 and the IC50 came to 21.4 ± 1.5 µM. Besides, in data set [9], the “SI HeLa” value is listed as 3.73 and the IC50 was 14.1 ± 1.2 µM.
`Cn1c(=O)c2c(-c3ccc(Cl)cc3)c(-c3nnc(S)n3N)c(N)nc2n(C)c1=O` [Compound 4, 7-Amino-6-(4-amino-5-mercapto-4H-1,2,4-triazol-3-yl)-5-(4-chlorophenyl)-1,3-dimethylpyrido[2,3-d]pyrimidine-2,4(1H,3H)-dione]: the IC50 at 48 h in data set [5] was 46.1 ± 2.7 µM. In addition, in data set [6], the “SI MCF-7” value worked out at 1.76 and the IC50 was 26.1 ± 1.7 µM. Moreover, the IC50 in data set [7] lay in the range of 14 to 26 µM. In data set [8], the “SI HepG-2” value turned out to be 1.99 and the IC50 was 23.1 ± 1.6 µM. Also, in data set [9], the “SI HeLa” value came out at 2.43 and the IC50 came to 18.9 ± 1.4 µM. Also, the zone of inhibition at 100 µg/mL in data set [3] turned out to be 6 mm.
Turning to `Cn1c(=O)c2c(-c3ccc(Cl)cc3)c(C(=O)NC(=S)NN)c(N)nc2n(C)c1=O` [Compound 5, 7-Amino-5-(4-chlorophenyl)-N-(hydrazinecarbonothioyl)-1,3-dimethyl-2,4-dioxo-1,2,3,4-tetrahydropyrido[2,3-d]pyrimidine-6-carboxamide], in data set [5], the IC50 at 48 h was determined as 35.2 ± 2.2 µM. Further, the “SI MCF-7” value in data set [6] came to 0.41. Also, the IC50 in data set [6] was 84.1 ± 4.2 µM; in [7] it was more than 84 µM; in data set [8], more than 100 µM; in data set [9], 89.4 ± 4.6 µM. Besides, the “SI HeLa” value in data set [9] is 0.39.
For the molecule `Cc1cc(C)n(C(=O)c2c(N)nc3c(c2-c2ccc(Cl)cc2)c(=O)n(C)c(=O)n3C)n1` [Compound 6, 7-Amino-5-(4-chlorophenyl)-6-(3,5-dimethyl-1H-pyrazole-1-carbonyl)-1,3-dimethylpyrido[2,3-d]pyrimidine-2,4(1H,3H)-dione], half-maximal inhibition in data set [5] (IC50 at 48 h) was put at 38.4 ± 2.6 µM. Moreover, in data set [6], the “SI MCF-7” value is reported as 1.20 and the IC50 is 32 ± 1.9 µM. The IC50 in data set [7] was in the range of 24 to 32 µM. In addition, in data set [8], the “SI HepG-2” value turned out to be 1.29 and the IC50 was 29.7 ± 1.8 µM. Moreover, in data set [9], the “SI HeLa” value is 1.54 and the IC50 is 24.8 ± 1.6 µM.
In [5], `Cn1c(=O)c2c(-c3ccc(Cl)cc3)c(-c3nnc(S)o3)c(N)nc2n(C)c1=O` [Compound 7, 7-Amino-5-(4-chlorophenyl)-6-(5-mercapto-1,3,4-oxadiazol-2-yl)-1,3-dimethylpyrido[2,3-d]pyrimidine-2,4(1H,3H)-dione] had a 50% inhibitory concentration (IC50) at 48 h of 26.8 ± 1.8 µM. Further, in data set [6], the “SI MCF-7” value was 2.30 and the IC50 was 11.6 ± 0.9 µM. For the same molecule, the IC50 in data set [7] was in the range of 9.72 to 17.5 µM. Further, in [8], the “SI HepG-2” value was found to be 1.52 and the IC50 came to 17.5 ± 1.3 µM. In data set [9], the “SI HeLa” value was 2.75 and the IC50 was 9.72 ± 0.9 µM.
In the case of `Cn1c(=O)c2c(-c3ccc(Cl)cc3)c(C3=NN=C(N)C3C#N)c(N)nc2n(C)c1=O` (stereo not drawn) [Compound 8, 3-Amino-5-[7-amino-5-(4-chlorophenyl)-1,3-dimethyl-2,4-dioxo-1,2,3,4-tetrahydropyrido[2,3-d]pyrimidin-6-yl]-4H-pyrazole-4-carbonitrile], the midpoint of inhibition in data set [5], the IC50 at 48 h, lay at 25.2 ± 1.8 µM. Also, in data set [6], the “SI MCF-7” value is listed as 0.31 and the IC50 turned out to be 79.3 ± 3.9 µM. Also, the IC50 in data set [7] was > 50 µM and 62 to 88 µM. Further, in data set [8], the “SI HepG-2” value was found to be 0.30 and the IC50 was found to be 82.8 ± 4.1 µM. Besides, in data set [9], the “SI HeLa” value amounted to 0.35 and the IC50 was 71.4 ± 3.8 µM.
Regarding `Cn1c(=O)c2c(-c3ccc(Cl)cc3)c(-c3nn(CCC#N)c(=S)o3)c(N)nc2n(C)c1=O` [Compound 9, 3-{5-[7-Amino-5-(4-chlorophenyl)-1,3-dimethyl-2,4-dioxo-1,2,3,4-tetrahydropyrido [2,3-d]pyrimidin-6-yl]-2-thioxo-1,3,4-oxadiazol-3(2H)-yl}propanenitrile], in data set [5], the IC50 at 48 h is more than 100 µM. Besides, the IC50 in data set [6] was 67.8 ± 3.6 µM; in data set [7] it was > 50 µM and 62 to 88 µM; in data set [8] it was 88.6 ± 4.4 µM; in [9] it was 62.7 ± 3.5 µM. The zone of inhibition at 100 µg/mL in data set [3] is 7.6 mm.
`Cn1c(=O)c2c(-c3ccc(Cl)cc3)c(-c3nn(CCc4nn[nH]n4)c(=S)o3)c(N)nc2n(C)c1=O` [Compound 10, 6-{4-[2-(2H-Tetrazol-5-yl)ethyl]-5-thioxo-4,5-dihydro-1,3,4-oxadiazol-2-yl}-7-amino-5-(4-chlorophenyl)-1,3-dimethylpyrido[2,3-d]pyrimidine-2,4(1H,3H)-dione]: in data set [5], the IC50 at 48 h worked out at 37.9 ± 2.4 µM. Moreover, in data set [6], the “SI MCF-7” value is 0.71. In addition, the IC50 in data set [6] was 53.1 ± 3.1 µM; in data set [7], more than 50 µM; in [8], 69.4 ± 3.7 µM; in data set [9], 48.7 ± 2.8 µM. Besides, in [8], the “SI HepG-2” value is 0.54. Further, in data set [9], the “SI HeLa” value is 0.77. In addition, in data set [3], the zone of inhibition at 100 µg/mL amounted to 6 mm.
Consider `Cn1c(=O)c2c(-c3ccc(Cl)cc3)c(C3=NN=C4N=CNC(=O)C43)c(N)nc2n(C)c1=O` (stereo not drawn) [Compound 11, 7-Amino-5-(4-chlorophenyl)-1,3-dimethyl-6-(4-oxo-3a,5-dihydro-4H-pyrazolo [3,4-d]pyrimidin-3-yl)pyrido[2,3-d]pyrimidine-2,4(1H,3H)-dione], for which the IC50 at 48 h in [5] is more than 100 µM. Also, the IC50 in data set [6] is 60.6 ± 3.5 µM; in [7], more than 50 µM; in [8], 73.2 ± 3.8 µM; in [9] it was 56.4 ± 3.2 µM. In addition, the figures for the zone of inhibition at 100 µg/mL in data set [1] and in [3] were 2 ± 0.1 mm and 8.6 mm, respectively.
On to `Cn1c(=O)c2c(-c3ccc(Cl)cc3)c(-c3nnc4n3N=C(Cl)CS4)c(N)nc2n(C)c1=O` [Compound 14, 7-Amino-6-(6-chloro-7H-[1,2,4]triazolo [3,4-b][1,3,4]thiadiazin-3-yl)-5-(4-chlorophenyl)-1,3-dimethylpyrido[2,3-d]pyrimidine-2,4(1H,3H)-dione], for which the midpoint of inhibition in data set [5], the IC50 at 48 h, lay at 22.5 ± 1.6 µM. For the same molecule, the “SI MCF-7” value in [6] was determined as 0.29. Also, the IC50 is 75.1 ± 3.8 µM in data set [6]; > 50 µM and 69 to 94 µM in data set [7]; 93.7 ± 4.8 µM in data set [8]; 68.7 ± 3.6 µM in data set [9]. In addition, the zone of inhibition at 100 µg/mL in data set [1] amounted to 8.15 ± 0.3 mm; in data set [3] it was 9.5 mm; in [4] it was 3 ± 0.05 mm. In [8], the “SI HepG-2” value was determined as 0.23. Moreover, the “SI HeLa” value in [9] turned out to be 0.32.
Consider `Cn1c(=O)c2c(-c3ccc(Cl)cc3)c(-c3nnc4sc(S)nn34)c(N)nc2n(C)c1=O` [Compound 15, 7-Amino-5-(4-chlorophenyl)-6-(6-mercapto-[1,2,4]triazolo[3,4-b][1,3,4]thiadiazol-3-yl)-1,3-dimethylpyrido[2,3-d]pyrimidine-2,4(1H,3H)-dione], for which the IC50 at 48 h in data set [5] stood at 41.2 ± 2.5 µM. Moreover, the “SI MCF-7” value in data set [6] came to 0.86. Further, the IC50 in data set [6] is 47.5 ± 2.8 µM; in data set [7], 40 to 52 µM; in data set [8], 51.8 ± 2.9 µM; in data set [9] it was 39.8 ± 2.4 µM. The zone of inhibition at 100 µg/mL in data set [1] was 7.5 ± 0.15 mm; in data set [3] it was 10.3 mm. In addition, the “SI HepG-2” value in data set [8] was 0.79. Besides, the “SI HeLa” value in data set [9] turned out to be 1.03.
As for `C#Cc1cccc(Nc2ncnc3cc(OCCOC)c(OCCOC)cc23)c1` [Erlotinib, erlotinib, reference compound], the IC50 at 48 h in [5] was 78.3 ± 3.9 µM. In addition, the figures for the IC50 in data set [6], in data set [8] and in data set [9] were 7.26 ± 0.3 µM, 9.18 ± 0.6 µM and 8.04 ± 0.5 µM, respectively.
